According to PubChem BioAssay (NCI):
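Grown in 96-well plates, cells were treated for 48 hours with each compound at five concentrations. Insufficient inhibition: endpoint recorded as highest concentration tested. Definition used: TGI = concentration required for complete inhibition of growth.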

Key:
Test in all cases: NCI-60 cell line screen, 48 h
786-0 renal = system: 786-0 renal
A549 NSCLC = system: A549 NSCLC
ACHN renal = system: ACHN renal
BT-549 breast = system: BT-549 breast
CAKI-1 renal = system: CAKI-1 renal
CCRF-CEM leukemia = system: CCRF-CEM leukemia
COLO 205 colon = system: COLO 205 colon
DU-145 prostate = system: DU-145 prostate
EKVX NSCLC = system: EKVX NSCLC
HCT-116 colon = system: HCT-116 colon
HCT-15 colon = system: HCT-15 colon
HL-60(TB) leukemia = system: HL-60(TB) leukemia
HOP-62 NSCLC = system: HOP-62 NSCLC
HOP-92 NSCLC = system: HOP-92 NSCLC
HS 578T breast = system: HS 578T breast
HT29 colon = system: HT29 colon
IGROV1 ovarian = system: IGROV1 ovarian
K-562 leukemia = system: K-562 leukemia
KM12 colon = system: KM12 colon
LOX IMVI melanoma = system: LOX IMVI melanoma
MALME-3M melanoma = system: MALME-3M melanoma
MCF7 breast = system: MCF7 breast
MDA-MB-231 breast = system: MDA-MB-231 breast
MDA-MB-435 = system: MDA-MB-435
MDA-N = system: MDA-N
MOLT-4 leukemia = system: MOLT-4 leukemia
NCI-H226 lung = system: NCI-H226 lung
NCI-H23 lung = system: NCI-H23 lung
NCI-H460 lung = system: NCI-H460 lung
NCI-H522 lung = system: NCI-H522 lung
NCI/ADR-RES ovarian = system: NCI/ADR-RES ovarian
OVCAR-3 ovarian = system: OVCAR-3 ovarian
OVCAR-4 ovarian = system: OVCAR-4 ovarian
OVCAR-5 ovarian = system: OVCAR-5 ovarian
OVCAR-8 ovarian = system: OVCAR-8 ovarian
PC-3 prostate = system: PC-3 prostate
RPMI-8226 leukemia = system: RPMI-8226 leukemia
RXF 393 renal = system: RXF 393 renal
SF-268 CNS = system: SF-268 CNS
SF-295 CNS = system: SF-295 CNS
SF-539 CNS = system: SF-539 CNS
SK-MEL-2 melanoma = system: SK-MEL-2 melanoma
SK-MEL-5 melanoma = system: SK-MEL-5 melanoma
SK-OV-3 ovarian = system: SK-OV-3 ovarian
SN12C renal = system: SN12C renal
SNB-19 CNS = system: SNB-19 CNS
SNB-75 CNS = system: SNB-75 CNS
SR leukemia = system: SR leukemia
SW-620 colon = system: SW-620 colon
T-47D breast = system: T-47D breast
TK-10 renal = system: TK-10 renal
U251 CNS = system: U251 CNS
UACC-257 melanoma = system: UACC-257 melanoma
UACC-62 melanoma = system: UACC-62 melanoma
UO-31 renal = system: UO-31 renal
HCC-2998 colon = system: HCC-2998 colon
M14 melanoma = system: M14 melanoma
SK-MEL-28 melanoma = system: SK-MEL-28 melanoma
A498 renal = system: A498 renal

Compound: COc1ccc(NC(=O)CC(=O)NN)cc1
- TGI (786-0 renal): > 100 µM
- TGI (A549 NSCLC): > 100 µM
- TGI (ACHN renal): > 100 µM
- TGI (BT-549 breast): > 100 µM
- TGI (CAKI-1 renal): > 100 µM
- TGI (CCRF-CEM leukemia): > 100 µM
- TGI (COLO 205 colon): > 100 µM
- TGI (DU-145 prostate): > 100 µM
- TGI (EKVX NSCLC): > 100 µM
- TGI (HCT-116 colon): > 100 µM
- TGI (HCT-15 colon): > 100 µM
- TGI (HL-60(TB) leukemia): > 100 µM
- TGI (HOP-62 NSCLC): > 100 µM
- TGI (HOP-92 NSCLC): > 100 µM
- TGI (HS 578T breast): > 100 µM
- TGI (HT29 colon): > 100 µM
- TGI (IGROV1 ovarian): > 100 µM
- TGI (K-562 leukemia): > 100 µM
- TGI (KM12 colon): > 100 µM
- TGI (LOX IMVI melanoma): > 100 µM
- TGI (MALME-3M melanoma): > 100 µM
- TGI (MCF7 breast): > 100 µM
- TGI (MDA-MB-231 breast): > 100 µM
- TGI (MDA-MB-435): > 100 µM
- TGI (MDA-N): > 100 µM
- TGI (MOLT-4 leukemia): > 100 µM
- TGI (NCI-H226 lung): > 100 µM
- TGI (NCI-H23 lung): > 100 µM
- TGI (NCI-H460 lung): > 100 µM
- TGI (NCI-H522 lung): > 100 µM
- TGI (NCI/ADR-RES ovarian): > 100 µM
- TGI (OVCAR-3 ovarian): > 100 µM
- TGI (OVCAR-4 ovarian): > 100 µM
- TGI (OVCAR-5 ovarian): > 100 µM
- TGI (OVCAR-8 ovarian): > 100 µM
- TGI (PC-3 prostate): > 100 µM
- TGI (RPMI-8226 leukemia): > 100 µM
- TGI (RXF 393 renal): > 100 µM
- TGI (SF-268 CNS): > 100 µM
- TGI (SF-295 CNS): > 100 µM
- TGI (SF-539 CNS): > 100 µM
- TGI (SK-MEL-2 melanoma): > 100 µM
- TGI (SK-MEL-5 melanoma): > 100 µM
- TGI (SK-OV-3 ovarian): > 100 µM
- TGI (SN12C renal): > 100 µM
- TGI (SNB-19 CNS): > 100 µM
- TGI (SNB-75 CNS): > 100 µM
- TGI (SR leukemia): > 100 µM
- TGI (SW-620 colon): > 100 µM
- TGI (T-47D breast): > 100 µM
- TGI (TK-10 renal): > 100 µM
- TGI (U251 CNS): > 100 µM
- TGI (UACC-257 melanoma): > 100 µM
- TGI (UACC-62 melanoma): > 100 µM
- TGI (UO-31 renal): > 100 µM

Compound: CN(C)c1ccc(/C=C(\C#N)c2nc(-c3cc4ccccc4oc3=O)cs2)cc1
- TGI (786-0 renal): 21 µM
- TGI (A549 NSCLC): > 50 µM
- TGI (ACHN renal): > 50 µM
- TGI (BT-549 breast): 8.16 µM
- TGI (CAKI-1 renal): > 50 µM
- TGI (CCRF-CEM leukemia): > 50 µM
- TGI (COLO 205 colon): > 50 µM
- TGI (DU-145 prostate): > 50 µM
- TGI (EKVX NSCLC): > 50 µM
- TGI (HCC-2998 colon): > 50 µM
- TGI (HCT-116 colon): > 50 µM
- TGI (HCT-15 colon): > 50 µM
- TGI (HL-60(TB) leukemia): > 50 µM
- TGI (HOP-62 NSCLC): 15.6 µM
- TGI (HOP-92 NSCLC): 16.8 µM
- TGI (HS 578T breast): > 50 µM
- TGI (HT29 colon): > 50 µM
- TGI (IGROV1 ovarian): > 50 µM
- TGI (K-562 leukemia): > 50 µM
- TGI (KM12 colon): > 50 µM
- TGI (LOX IMVI melanoma): > 50 µM
- TGI (M14 melanoma): > 50 µM
- TGI (MALME-3M melanoma): > 50 µM
- TGI (MCF7 breast): > 50 µM
- TGI (MDA-MB-231 breast): 40.9 µM
- TGI (MDA-MB-435): > 50 µM
- TGI (MDA-N): > 50 µM
- TGI (MOLT-4 leukemia): > 50 µM
- TGI (NCI-H226 lung): > 50 µM
- TGI (NCI-H460 lung): > 50 µM
- TGI (NCI-H522 lung): 31.6 µM
- TGI (NCI/ADR-RES ovarian): > 50 µM
- TGI (OVCAR-4 ovarian): > 50 µM
- TGI (OVCAR-5 ovarian): > 50 µM
- TGI (OVCAR-8 ovarian): > 50 µM
- TGI (PC-3 prostate): > 50 µM
- TGI (RPMI-8226 leukemia): > 50 µM
- TGI (RXF 393 renal): > 50 µM
- TGI (SF-268 CNS): > 50 µM
- TGI (SF-295 CNS): 25.1 µM
- TGI (SF-539 CNS): 26.7 µM
- TGI (SK-MEL-2 melanoma): 38.6 µM
- TGI (SK-MEL-28 melanoma): > 50 µM
- TGI (SK-MEL-5 melanoma): > 50 µM
- TGI (SK-OV-3 ovarian): > 50 µM
- TGI (SN12C renal): > 50 µM
- TGI (SNB-19 CNS): > 50 µM
- TGI (SNB-75 CNS): 4.21 µM
- TGI (SR leukemia): > 50 µM
- TGI (SW-620 colon): > 50 µM
- TGI (T-47D breast): > 50 µM
- TGI (TK-10 renal): 21.8 µM
- TGI (U251 CNS): 44.5 µM
- TGI (UACC-257 melanoma): > 50 µM
- TGI (UACC-62 melanoma): 24.3 µM
- TGI (UO-31 renal): > 50 µM

Compound: O=C(O)CCn1cnc2c(=S)nc[nH]c21
- TGI (786-0 renal): > 100 µM
- TGI (A498 renal): > 100 µM
- TGI (A549 NSCLC): > 100 µM
- TGI (ACHN renal): > 100 µM
- TGI (BT-549 breast): > 100 µM
- TGI (CAKI-1 renal): > 100 µM
- TGI (CCRF-CEM leukemia): > 100 µM
- TGI (COLO 205 colon): > 100 µM
- TGI (DU-145 prostate): > 100 µM
- TGI (EKVX NSCLC): > 100 µM
- TGI (HCC-2998 colon): > 100 µM
- TGI (HCT-116 colon): > 100 µM
- TGI (HCT-15 colon): > 100 µM
- TGI (HL-60(TB) leukemia): > 100 µM
- TGI (HOP-62 NSCLC): > 100 µM
- TGI (HS 578T breast): > 100 µM
- TGI (HT29 colon): > 100 µM
- TGI (IGROV1 ovarian): > 100 µM
- TGI (K-562 leukemia): > 100 µM
- TGI (KM12 colon): > 100 µM
- TGI (LOX IMVI melanoma): > 100 µM
- TGI (M14 melanoma): > 100 µM
- TGI (MALME-3M melanoma): > 100 µM
- TGI (MCF7 breast): > 100 µM
- TGI (MDA-MB-231 breast): > 100 µM
- TGI (MDA-MB-435): > 100 µM
- TGI (MDA-N): > 100 µM
- TGI (MOLT-4 leukemia): > 100 µM
- TGI (NCI-H226 lung): > 100 µM
- TGI (NCI-H23 lung): > 100 µM
- TGI (NCI-H460 lung): > 100 µM
- TGI (NCI-H522 lung): > 100 µM
- TGI (NCI/ADR-RES ovarian): > 100 µM
- TGI (OVCAR-3 ovarian): > 100 µM
- TGI (OVCAR-4 ovarian): > 100 µM
- TGI (OVCAR-5 ovarian): > 100 µM
- TGI (OVCAR-8 ovarian): > 100 µM
- TGI (PC-3 prostate): > 100 µM
- TGI (RPMI-8226 leukemia): > 100 µM
- TGI (RXF 393 renal): > 100 µM
- TGI (SF-268 CNS): > 100 µM
- TGI (SF-295 CNS): > 100 µM
- TGI (SF-539 CNS): > 100 µM
- TGI (SK-MEL-2 melanoma): > 100 µM
- TGI (SK-MEL-28 melanoma): > 100 µM
- TGI (SK-MEL-5 melanoma): > 100 µM
- TGI (SK-OV-3 ovarian): > 100 µM
- TGI (SN12C renal): > 100 µM
- TGI (SNB-19 CNS): > 100 µM
- TGI (SNB-75 CNS): > 100 µM
- TGI (SR leukemia): > 100 µM
- TGI (SW-620 colon): > 100 µM
- TGI (T-47D breast): > 100 µM
- TGI (TK-10 renal): > 100 µM
- TGI (U251 CNS): > 100 µM
- TGI (UACC-257 melanoma): > 100 µM
- TGI (UACC-62 melanoma): > 100 µM
- TGI (UO-31 renal): > 100 µM
